# Results reported in patent US9512178B2, “Neurogenic brain-derived neurotrophic factor peptides” (Research Foundation for Mental Hygiene, Inc., priority 2012, dated 2016).
# Columns and labels:
# BDNF and TrkB = assay: Induction of BDNF and TrkB expression after pre-treatment with CHX or K252a; type: cell-based, mouse; conditions: 0.1 μM, two days
# Protocol: Peptides were dissolved in water in serial dilutions of 10 mM, 1 mM, 100 μM and 10 μM from which the necessary amount was added directly to the culture medium to a final concentration of 0.05 μM, 1 μM, or 10 μM. The BDNF (Peprotech, NJ, USA) was used as a reference in concentrations of 20 ng/ml (0.79 nM) and 100 ng/ml (3.95 nM). Cycloheximide (CHX) (Sigma-Aldrich, St Louis, Mo., USA) was used for blocking protein synthesis. CHX original stock was 100 mg/ml (355.4 mM) in DMSO; from a second stock of 35.54 mM in DMSO, the dilutions were made to the final concentrations of 100 μM. The K252a (CALBIOCHEM/EMD) was used to inhibit the TrkB Receptor. From a stock of 100 μM in DMSO, K252a was diluted to a final working concentration of 200 nM. The E18 primary hippocampal cells were pre-treated with CHX or K252a 1 h prior to the addition of the peptides or BDNF and a time course of these treatments for 15 min, 60 min and 2 days was studied.
# To evaluate whether the effect of B-5 and B-3 in induction of the expression of BDNF and TrkB was via the activation of the TrkB receptor and required signal transduction via TrkB and new protein synthesis, mouse embryonic E18 cultured hippocampal cells were pre-treated with the protein synthesis inhibitor, cycloheximide (CHX) or the Trk inhibitor K252a for 1 h, and then added Peptide B-5 at a concentration of 0.1 μM (the dose that gave the maximum induction of BDNF expression, FIGS. 5A and B) or BDNF 20 ng/ml as a positive control (FIG. 7C,D). A time course of these treatments was studied with Peptide B-5 or BDNF for 15 min, 60 min and two days.
# [1] = tested on: mouse E18 primary hippocampal neurons; assay: Toxicity of the peptides: phase contrast morphology and LDH assay, 5 days treatment; type: cell-based
# Text: To screen these peptides, primary neuronal cell cultures were used from embryonic day 18 (E18) C57BL/6 mouse hippocampus. At the fourth day in vitro (DIV), the culture medium was exchanged with the medium containing the peptides. The primary neuronal cultures were established as taught in the art (see, e.g., Cardenas-Aguayo Mdel, Santa-Olalla et al. 2003, hereby incorporate by reference). Briefly, C57BL/6 time pregnant E18 female mice from Charles River Labs were anesthetized and killed by cervical dislocation following our Institutional Animal Care and Use Committee (IACUC) regulations and approved protocol. Embryos were removed and placed in cold Hibernate A (available from Brain bits, Springfield, Ill., USA), and all of the following steps were performed in ice-cold Hibernate A, under a stereoscopic (dissection) microscope placed in a laminar flow hood. Fetal brains were removed carefully and fore brain were separated. Then, the hippocampus, including the cortex surrounding the area of the hippocampus, was dissected and cut into small pieces using microsurgical scissors. The cut tissue was transferred with number 5 forceps to 15 ml tubes containing 0.1% trypsin in Versene (Invitrogen Life Technologies, Grand Island, N.Y., USA) and incubated for 15 min at 37° C. followed by inactivation with 10% fetal bovine serum (FBS) in Neurobasal complete medium (Neurobasal Medium supplemented with 2×B-27, 0.30% glutamine, and penicillin/streptomycin 0.1 mg/ml and 0.1 U/ml respectively). All medium components were purchased from Invitrogen, Grand Island, N.Y., USA. […]
# To study any toxic effect of the peptides, mouse E18 primary hippocampal neurons were treated with the five BDNF peptides individually for up to 5 days at different doses [5 nM, 25 nM, 50 nM (data not shown), 100 nM (0.1 μM), 1000 nM (1 μM), and 10,000 nM (10 μM)]. […] Accordingly, there was no significant change in the viability of cells treated with any of the peptides as evaluated by the lactate dehydrogenase (LDH) assay (see FIG. 2B). […]
Substance,increase in the expression of BDNF in the presence of CHX (BDNF and TrkB; CHX pre-treatment 1 h),increase in the expression of TrkB in the presence of CHX (BDNF and TrkB; CHX pre-treatment 1 h),induction of the expression of BDNF in cells treated with K252a (BDNF and TrkB; K252a pre-treatment 1 h),induction of the expression of TrkB in cells treated with K252a (BDNF and TrkB; K252a pre-treatment 1 h),cell death (LDH assay) vs vehicle treated cells ([1]; 0.1 μM),cell death (LDH assay) vs vehicle treated cells ([1]; 1 μM)
Ac-I-K-R-G-CONH2 [Peptide B-5],inhibition of the increase,inhibition of the increase,no more significant induction,no more significant induction,,
Ac-S-KKR-CONH2 [Peptide B-3],,,,,significant reduction in cell death,significant reduction in cell death
